Experimental data: patent US10945978B2, “Treatment and diagnosis of melanoma” (The Rockefeller University, priority 2012, dated 2021)
Where a name gives a salt, the structure may show the parent alone.

Assays:
[1] = system: HT-144 melanoma line, SK-Mel-334.2 primary melanoma line; assay: Lung metastatic colonization by HT-144 and SK-Mel-334.2 cells in NOD scid mice; format: in vivo, human
Method: Melanoma cells used for in vivo metastasis assays were transduced with a stably expressed retroviral construct encoding a luciferase reporter gene (Ponomarev et al., 2004), allowing us to monitor the in vivo progression of melanoma cells by bioluminescence imaging. The following numbers of melanoma cells, resuspended in 100 μL of PBS, were injected intravenously via the tail-vein: 4×10^4 MeWo cells, 2.5×10^5 HT-144 cells, 2×10^5 SK-Mel-334.2 cells, 5×10^4B16F10 cells, and 1×10^5 YUMM cells. The MeWo, HT-144, and SK-Mel-334.2 cells were injected into 6-8 week-old sex-matched NOD scid mice, while the B16F10 and YUMM cells were injected into 6-8 week-old sex-matched C57BL/6 mice. In all experiments assessing at the effects of GW3965 on metastasis formation, mice were pre-treated on a control diet or a GW3965-supplemented diet (20 mg/kg) for 10 days. To assess the effect of GW3965 treatment on brain metastasis, 1×10^5 MeWo brain-metastatic derivatives were injected intracardially into athymic nude mice. Immediately following injection, mice were randomly assigned to a control diet or GW3965-supplemented diet (100 mg/kg). […]

MeWo cells = assay: Orthotopic metastasis assay (lung colonization after tumor excision); format: in vivo, human; settings: oral, 100 mg/kg for 1 month post-tumor excision
Method: To determine the effect of GW3965 treatment on lung colonization by melanoma cells dissociated from an orthotopic site, 1×10^6 MeWo cells expressing a luciferase reporter were subcutaneously injected into both lower flanks of NOD Scid mice. Upon the formation of tumors measuring ˜300 mm^3 in volume, the tumors were excised and the mice were randomly assigned to a control diet or a GW3965-supplemented diet (100 mg/kg) treatment. One month after tumor excision, the lungs were extracted and lung colonization was measured by ex vivo bioluminescence imaging. To histologically confirm the extent of melanoma lung colonization, lungs were then fixed in 4% PFA overnight, paraffin-embedded, section into […] increments and stained for human vimentin (VP-V684, Vector Laboratories).

[2] = system: RCC human renal cancer cells, PANC1 human pancreatic cancer cells, H460 human lung cancer cells; assay: Matrigel invasion of renal, pancreatic and lung cancer cells treated with GW3965; format: cell-based; settings: 1 μM for 72 hours prior to the assay
Method: Various cell lines (5×10^4 RCC human renal cancer cells, 5×10^4 PANC1 human pancreatic cancer cells, and 5×10^4 H460 human lung cancer cells) were treated with DMSO or GW3965 at 1 μM for 56 hours. The cells were serum starved for 16 hours in 0.2% FBS media in the presence of DMSO or GW3965. Following serum starvation, the cells were subjected to the trans-well invasion assay using a matrigel invasion chamber system (354480, BD Biosciences). Invasion chambers were pre-equilibrated prior to the assay by adding 0.5 mL of starvation media to the top and bottom wells. Meanwhile, cancer cells were trypsinized and viable cells were counted using trypan blue. Cancer cells were then resuspended at a concentration of 1×10^5 cells/1 mL starvation media, and 0.5 mL of cell suspension, containing 5×10^4 cells, was seeded into each trans-well. The invasion assay was allowed to proceed for 24 hours at 37° C. […] Following fixation, the inserts were washed in PBS and then cut out and mounted onto slides using VectaShield mounting medium containing DAPI nuclear stain (H-1000, Vector Laboratories). The basal side of each insert was imaged using an inverted fluorescence microscope (Zeiss Axiovert 40 CFL) at 5× magnification, and the number of DAPI-positive cells was quantified using ImageJ.

[3] = system: DTIC-resistant MeWo human melanoma cells; settings: oral, GW3965 diet 100 mg/kg
Method: Following growth of tumors to 5-10 mm^3 in volume, mice were blindedly assigned to the following treatment groups: (1) control diet; (2) control diet+DTIC (50 mg/kg); (3) GW3965-supplemented diet (100 mg/kg). […] DTIC was administered daily, as described above, in cycles consisting of 5 consecutive daily treatments interspersed by 2-day off-treatment intervals. Tumor growth was measured twice a week.

[4] = system: VEGF-induced endothelial recruitment; assay: In vivo matrigel plug assay; design: species or system mouse; settings: VEGF 400 ng/mL + recombinant ApoE3 10 μg/mL
Method: 10 μg/mL recombinant human ApoE3 (4696, BioVision), 10 μg/mL BSA (A2153, Sigma Aldrich), or 400 ng/ml VEGF were mixed with matrigel (356231, BD Biosciences) as indicated. 400 μL of matrigel containing the indicated recombinant proteins were injected subcutaneously just above the ventral flank of immunocompromised NOD-SCID mice. Plugs were extracted on day 3 post-injection and fixed in 4% paraformaldehyde for 48 hours. Plugs were then paraffin-embedded and sectioned at 5-μm-thick increments. Plug cross-sectional sections were immunohistochemically stained using a primary antibody against the mouse endothelial antigen MECA-32 (Developmental Studies Hybridoma Bank, The University of Iowa, IA), detected by peroxidase-conjugated secondary antibody, and subsequently visualized by DAB oxidization. To quantify the extent of endothelial cell invasion into each matrigel plug, the number of endothelial cells was counted in 4-5 random fields for each plug, and the average number of endothelial cells per given plug area was calculated.

endothelial cells = assay: Endothelial recruitment by breast, renal cell and pancreatic cancer cells with ApoE; format: cell-based
[5] = system: breast cancer, renal cell cancer, and pancreatic cancer cell lines; assay: Matrigel invasion of breast, renal cell and pancreatic cancer cell lines with recombinant ApoE; format: cell-based, human; settings: recombinant ApoE3 100 μg/mL vs BSA
Method: The ability of cancer cells to invade through matrigel in vitro was tested by using a trans-well matrigel invasion chamber system (354480, BD Biosciences). Various cancer cell lines were serum-starved overnight in media containing 0.2% FBS. The following day, invasion chambers were pre-equilibrated prior to the assay by adding 0.5 mL of starvation media to the top and bottom wells. Meanwhile, cancer cells were trypsinized and viable cells were counted using the trypan blue dead cell exclusion dye. Cancer cells were then resuspended at a concentration of 1×10^5 cells/1 mL starvation media, and 0.5 mL of cell suspension, containing 5×10^4 cells, was seeded into each trans-well. To determine the effect of recombinant ApoE on cancer cell invasion, human recombinant ApoE3 (4696, Biovision) or BSA were added to each trans-well at 100 μg/mL at the start of the assay. The invasion assay was allowed to proceed for 24 hours at 37° C. […] Following fixation, the inserts were washed in PBS and then cut out and mounted onto slides using VectaShield mounting medium containing DAPI nuclear stain (H-1000, Vector Laboratories). The basal side of each insert was imaged using an inverted fluorescence microscope (Zeiss Axiovert 40 CFL) at 5× magnification, and the number of DAPI-positive cells was quantified using ImageJ.

Compound	metastatic colonization ([1]; HT-144 melanoma line)	metastatic colonization ([1]; SK-Mel-334.2 primary melanoma line)	inhibition of lung colonization by disseminated melanoma cells (MeWo cells)	tumor cell invasion [2]	growth of in vivo-derived DTIC-resistant human melanoma tumors [3]	suppression of VEGF-induced endothelial recruitment into subcutaneous matrigel plugs [4]	endothelial recruitment (endothelial cells)	tumor cell invasion [5]
O=C(O)Cc1cccc(OCCCN(Cc2cccc(C(F)(F)F)c2Cl)CC(c2ccccc2)c2ccccc2)c1 [GW3965 2, 3-[3-[N-(2-Chloro-3-trifluoromethylbenzyl)-(2,2-diphenylethyl)amino]propyloxy] phenylacetic acid hydrochloride]	suppressed	suppressed	17 fold	inhibition	strongly inhibited	–	–	–
recombinant human ApoE: recombinant human ApoE3 (4696, BioVision)	–	–	–	–	–	greater than 40 fold	inhibited	inhibited
